The values below come from paper PMC6270413 (2013).

Assay [1] deals with C-myc quadruplex (DNA, G4) TGGGGAGGGTGGGGAGGGTGGGGAAGG
Put plainly: fluorescence titration. The note with it: K+ 100 mM (KCl); 10 mM Tris-HCl, 0.1 mM EDTA, pH 7.5.

For assay [2] the test system is unchanged. As to the kind of experiment: circular dichroism titration. The note with it: K+ 100 mM (KCl); 10 mM Tris-HCl, 0.1 mM EDTA, pH 7.5, 20 °C; 10 µM strand; induced CD only above ratio two.
Assay [3] has the same test system. As to the kind of experiment: UV-Vis absorption (hypochromism, 19 nm bathochromic shift). The settings on record: K+ 100 mM (KCl); 10 mM Tris-HCl, 0.1 mM EDTA, pH 7.5, 22–24 °C; 5 µM DNA, 5 µM ligand.
Assay [4] relates to TFO C-myc duplex (Table 2: C-myc duplex) (DNA, duplex) AGGGAGGGAGGTAAGAAAAAGGG/CCCTTTTTCTTACCTCCCTCCCT
Put plainly: FID screen (thiazole orange displacement, single concentration). The note with it: K+ 100 mM (KCl); 10 mM Tris-HCl, 0.1 mM EDTA, pH 7.5, 21–23 °C; 0.25 µM duplex, 0.50 µM TO, ligand 1:1.

For assay [5], the system named is C-myc quadruplex (DNA, G4) TGGGGAGGGTGGGGAGGGTGGGGAAGG
Put plainly: fluorescent intercalator displacement titration. The note with it: K+ 100 mM (KCl); 10 mM Tris-HCl, 0.1 mM EDTA, pH 7.5; thiazole orange displaced.

Regarding `CN1C(=Cc2cc[n+](C)c3ccccc23)Sc2ccccc21`, the binding entry in assay [1] is on record as “yes”.

In the case of `CN1CCN(c2ccc3nc(-c4ccc5nc(-c6ccc(O)cc6)[nH]c5c4)[nH]c3c2)CC1`, the binding result in assay [2], in assay [3] and in assay [4] was “yes” each time. In assay [5], the DC50 amounted to 1.58 ± 0.01 µM.

In assay [5], `NC[C@@H]1O[C@H](O[C@H]2[C@@H](O)[C@H](O[C@@H]3[C@@H](O)[C@H](N)C[C@H](N)[C@H]3O[C@H]3O[C@H](CN)[C@@H](O)[C@H](O)[C@H]3N)O[C@@H]2CO)[C@H](N)[C@@H](O)[C@@H]1O` showed a DC50 above 5.5 µM.
